What all share (assay type): in vivo
Series [1] relates to antigen-induced eosinophil infiltration. Nature of the series: Antigen-induced eosinophil infiltration, intrabronchial administration (BALF cell count). To be noted: BN rats; for Number of eosinophils: BAL 24 hours after antigenic exposure, mean ± standard error; for inhibitory effect to infiltration of eosinophils induced by antigen (in words): 30 to 100 μg/rat. The protocol: (§1) The test was conducted in accordance with a known method [Pulmonary Pharmacology, volume 8, pages 83-89 (1995)].
(§2) Male BN rats of six weeks age (Nippon Charles Liver) were used for the test. Five to six rats were put in each plastic cage in a breeding room where the room temperature was 19 to 25° C., humidity was 30 to 70% and a daily illumination was 12 hours (from 7 a.m. to 7 p.m.), and breeding was conducted where commercially available solid feed and water were freely taken by the rats.
(§3) A suspension (1 mL) of 1 mg of ovalbumin (OVA; manufactured by Sigma) and 200 mg of aluminum hydroxide (manufactured by Wako Pure Chemical) in 1 mL of a physiological saline (manufactured by Otsuka Pharmaceutical) was subcutaneously administered to each rat, and then 0.5 mL of a suspension of killed Virdetella pertussis (2×10^10 cells/mL physiological saline solution; manufactured by Kaken Pharmaceutical) was intraperitoneally administered to conduct active sensitization. After 14 days from the active sensitization, the rats were placed in a plastic chamber (30×50×30 cm) and subjected to an antigenic exposure by nebulizing of an 1 weight/volume % solution of OVA in a physiological saline for 10 minutes. For the nebulizing, an ultrasonic nebulizer (manufactured by Omron) was used.
(§4) By the same manner as in Test Example 1, a suspension for administration of Compound (II) was prepared and intrabronchially administered to the sensitized rats.
(§5) Before 30 minutes of the antigenic exposure, the solvent for administration or the suspension for administration of Compound (II) was intrabronchially administered to the sensitized rats at a dose of 100 μL to each of right and left bronchi (200 μL in total). A group where a suspension for administration of Compound (II) was intrabronchially administered to the sensitized rat and an 1 weight/volume % OVA-physiological saline solution was nebulized, was called a Compound (II)-administered group; a group where the solvent for administration was intrabronchially administered to the sensitized rat and an 1 weight/volume % OVA-physiological saline solution was nebulized, was called a solvent-administered group; and a group where the solvent for administration was intrabronchially administered and a physiological saline was nebulized, was called a physiological saline group.
(§6) After 24 hours of the antigenic exposure or of the nebulizing with a physiological saline, a broncho-alveolar lavage (BAL) was conducted. Thus, a rat was anesthetized by an intraperitoneal administration of pentobarbital (manufactured by Dainippon Pharmaceutical) and pulmonary alveoli cavity was washed with a physiological saline via an airway cannula to prepare a broncho-alveolar lavage fluid (BALF).
(§7) The BALF was centrifuged under the condition of 950 rpm (200×g) at 4° C. for 10 minutes, the precipitated cells were suspended in 1 mL of a physiological saline, and total leukocyte numbers were measured by an automatic blood corpuscle counter (manufactured by Nippon Koden). Smeared samples of cells were also prepared using Cytospin III (manufactured by Shandon). After the smeared sample was subjected to a Giemsa staining, 500 cells were observed under an optical microscope, numbers of eosinophils and neutrophils were counted and their ratios were calculated. Number of eosinophils and number of neutrophils were calculated by multiplying the total leukocyte numbers by each ratio of number of eosinophils and number of neutrophils, respectively. Inhibition rate (%) to increases of number of eosinophils and number of neutrophils respectively in BALF was calculated according to the following. [formula]
(§8) A: Numbrer of eosinophils or neutrophils in the solvent-administering group
(§9) B: Numbrer of eosinophils or neutrophils in the Compound (II)-administered group
(§10) C: Numbrer of eosinophils or neutrophils in the physiological saline group

Series [2] is described as follows: Changes in concentration in lung tissues and in plasma upon intra-airway (intrabronchial) administration. To be noted: SD rats, 4 mg/kg; for AUC in lung tissues (concentration in lung tissues) / AUC in plasma (concentration in plasma): 0.25-4 hours; for half-life / Kp: male, rat, other: intrabronchial; for half-life: in vivo, read-out: biological half-life (T1/2) (converted); for Kp: lung tissue / plasma, read-out: ratio of concentration in lung tissues to concentration in plasma (AUC). The protocol:
Male rats of SD strain (Nippon Charles Liver, Kanagawa) were bred under the condition of temperature of 23±1° C. and humidity of 55±5%, and those where body weight was 210 to 240 g at seven weeks age were used for the test. Administration of the test compound (Compound (II)) was conducted under a non-fasting condition, and during the test, solid feed (F-2; Funahashi Nojo, Chiba) and tap water were freely taken by them. Case numbers for the test was made n=2 for each stage.
According to a conventional method, the preparations of Compound (II) and RP 73401 being known as a PDE-IV inhibitor [drawing 9] [J. Med. Chem., volume 37, pages 1696-1703 (1994)] were prepared (lactose/Compound (II) or RP 73401=5/1), and each of them was suspended in 0.125 weight/volume % tyloxapol (Alevaire: registered trade mark, Nippon Shoji, Osaka). The resulting suspension was further diluted with 0.125 weight/volume % tyloxapol containing 0.25 weight/volume % of lactose (Pharmatose 325 M; registered trade mark, DMV International, Veghel, The Nethelands) (a solvent for administration), and a suspension for administration of Compound (II) or RP 73401 having an desired concentration was prepared.
Each of Compound (II) and RP 73401 was intrabronchially administered at a dose of 4 mg/kg, respectively. The solvent for administration or the suspension for administration of Compound (II) or RP 73401 was intrabronchially administered to each of right and left bronchi of an ether-anesthetized rat at a dose of 100 μL (200 μL in total) using a disposable oral sound (for mice; Fuchigami Kikai, Kyoto).
At each of stages of 0.25, 0.5, 1, 2 and 4 hours after the intrabronchial administration, abdomen of rat under a light anesthetization with ether was incised, and about 1 mL of blood was collected from a descending vena cava using a heparin-treated syringe (24 G; 1 mL; Thermo, Tokyo). Plasma was separated from the blood using a cooling centrifugal separator and stored by freezing at −20° C. until the measurement. After washing the pulmonary alveoli, the bronchus was resected to collect the lung. The wet weight of the lung was measured and the lung was stored by freezing.
To 100 μL of the plasma collected hereinabove was added a 200 μL of methanol solution of 25 μg/mL 7-[2-(3,5-dichloro-4-pyridyl)-1-oxoethyl]-4-methoxy-spiro-[1,3-benzodioxole-2,1′-cyclohexane] (an internal standard substance), and the mixture was stirred. The mixture was allowed to stand for 10 minutes on ice, followed by centrifuged, and then 200 μL of the supernatant was dried under a nitrogen flow. The resulting solid was dissolved in 200 μL of methanol and centrifuged. The resulting supernatant was subjected to centrifugal filtration using a centrifugal filtration unit ultrafree (C3GV; 0.22 μm; Nippon Millipore, Tokyo). The filtrate (100 μL) was used as a plasma sample and concentrations of Compound (II) and RP 73401 were measured using a mass spectrometer (LC/MS/MS).
In an immunotube (15 mL: Nunc, Glostrup, Denmark), to the lung prepared hereinabove was added the internal standard substance in which the concentration to the lung tissues was previously made 10 μg/g lung tissues, and the mixture was dried under a nitrogen flow. To the resulting solid was added pure water (Milli-Q SP Reagent Water System: Nippon Millipore, Tokyo) in an amount of one-fold to the wet weight followed by subjecting to homogenizing using a homogenator (Ikemoto Rika Kogyo, Tokyo). A two-fold amount of methanol was further added thereto and the mixture was homogenized, allowed to stand for 10 minutes on ice and centrifuged. The supernatant (300 μL) was taken into a microtube and centrifuged once again. The resulting supernatant (100 μL) was used as a lung sample, and concentrations of Compound (II) and RP 73401 were measured by using of a high-performance liquid chromatography (HPLC).

The subject of series [3] is antigen-induced neutrophil infiltration. Nature of the series: Antigen-induced neutrophil infiltration, intrabronchial administration (BALF cell count). The following applies: BN rats; for Number of neutrophils: BAL 24 hours after antigenic exposure, mean ± standard error; for inhibitory effect to infiltration of neutrophils induced by antigen (in words): 30 to 100 μg/rat. The protocol:
as §1, §2, §3, §4, §5, §6, §7, §8, §9, §10

For another series, the system named is gastric excretion. As to the kind of experiment: Inhibitory activity for gastric excretion by intrabronchial administration (Phenol Red method). To be noted: SD rats, intrabronchial 30 minutes before P-C solution, 30 to 100 μg/rat. The protocol: Male SD rats (six weeks age; body weight upon purchase was 180 to 200 g; Nippon SLC) were used for the test. The rats were bred in an animal room where room temperature was 23±1° C., humidity was 55±5% and solid feed and drinking water were made freely taken by them.
Suspensions for administration of Compound (II) and RP 73401 were prepared by the same manner as in Test Example 1 and each of them was subjected to an intrabronchial administration.
The rats (body weight used for the experiment: about 200 g) were fasted on the day before the test (before about 24 hours) and were bred only by drinking water. A test for gastric excretion was conducted according to a Phenol Red method [Arch. Int. […]
A 1.5 mL of an 1.5 weight/volume % carboxymethyl cellulose (CMC) solution containing a 0.05 weight/volume % Phenol Red (hereinafter, referred to as P—C solution) was orally administered to the rats where one group comprised six rats. […] The extirpated stomach was incised in 40 mL of a 0.1 mol/L aqueous NaOH solution to recover the P—C solution and the amount of Phenol Red remaining in the stomach was measured. […] The gastric excretion ratio (%) in the agent-administered group or the solvent-administered group was calculated by the following equation (1) while the inhibition rate (%) of the agent to the gastric excretion was calculated from the gastric excretion ratio using the following equation (2). […]

Structures are written as SMILES.

The text below walks through data of patent publication US20060239927A1, “Drug for airway administration” (Kyowa Hakko Kogyo Co.,, priority 2003, published 2006).

Take `COc1ccc(C(=O)Cc2c(Cl)cncc2Cl)c2c1OC1(CCCC1)O2` [Compound (II), 7-[2-(3,5-dichloro-4-pyridyl)-1-oxoethyl]-4-methoxy-spiro-[1,3-benzodioxole-2,1′-cyclopentane]]: in series [1] (30 μg/rat), the “Inhibition rate to increase of number of eosinophils in BALF” value was 50% and the Number of eosinophils is recorded as 0.09 ± 0.03 10^6/BALF. In addition, in series [1] (100 μg/rat), the “Inhibition rate to increase of number of eosinophils in BALF” value is 86% and the Number of eosinophils was 0.04 ± 0.01^## 10^6/BALF. Besides, the “inhibitory effect to infiltration of eosinophils induced by antigen (in words)” value in series [1] is “inhibited”. In addition, in series [2], the AUC in lung tissues (concentration in lung tissues) is 3640 µg·h/mL, the AUC in plasma (concentration in plasma) amounted to 0.733 µg·h/mL, the half-life is 3.81 h and the Kp amounted to 4970. Moreover, in series [3] (30 μg/rat), the “Inhibition rate to increase of number of neutrophils in BALF” value is 56% and the Number of neutrophils is given as 0.64 ± 0.14 10^6/BALF. In addition, in series [3] (100 μg/rat), the “Inhibition rate to increase of number of neutrophils in BALF” value was 80% and the Number of neutrophils is on record as 0.43 ± 0.06^# 10^6/BALF. In addition, the “inhibitory effect to infiltration of neutrophils induced by antigen (in words)” value in series [3] was “inhibited”. Also, the “inhibitory effect to gastric excretion (in words)” value with gastric excretion is recorded as “no significant inhibitory effect to gastric excretion was observed”.
Turning to `COc1ccc(C(=O)Nc2c(Cl)cncc2Cl)cc1OC1CCCC1` [RP 73401, reference compound], the “inhibitory effect to infiltration of eosinophils induced by antigen (in words)” value in series [1] is given as “significant inhibitory activity”. In series [2], the AUC in lung tissues (concentration in lung tissues) came to 248 µg·h/mL, the AUC in plasma (concentration in plasma) was found to be 0.826 µg·h/mL, the half-life was 0.341 h and the Kp was determined as 300. Also, in series [3], the “inhibitory effect to infiltration of neutrophils induced by antigen (in words)” value was “significant inhibitory activity”. Also, the “inhibitory effect to gastric excretion (in words)” value with gastric excretion is “a dose-depending inhibitory effect to gastric excretion was observed”.
